Reference: ChEMBL document CHEMBL3046515, “Zn(Proline)2-catalyzed Knoevenagel condensation under solvent-free/aqueous conditions and biological evaluation of products” (2011)
Calls of active or inactive are those of the source. No cut-off for these calls is given here.

Key:
Aspergillus fumigatus [1] = assay: Antifungal activity against Aspergillus fumigatus at 30 ug/disk after 72 hr; assay type: functional, organism-based
Aspergillus niger [2] = assay: Antifungal activity against Aspergillus niger at 30 ug/disk after 72 hr; assay type: functional, organism-based
Candida albicans [3] = assay: Antifungal activity against Candida albicans at 30 ug/disk after 18 to 48 hr; assay type: functional, organism-based
Escherichia coli [4] = assay: Antibacterial activity against Escherichia coli K-12 at 100 ug/ml after 24 hr by filter paper disk method; assay type: functional; details: for zone of inhibition at 100 µg/mL: K-12, 24 h, read-out: DIZ
Salmonella typhimurium [5] = assay: Antibacterial activity against Salmonella enterica subsp. enterica serovar Typhimurium MTCC 98 at 100 ug/ml after 24 hr by filter paper disk method; assay type: functional; details: for zone of inhibition at 100 µg/mL: MTCC 98, 24 h, read-out: DIZ
Bacillus subtilis [6] = assay: Antibacterial activity against Bacillus subtilis MTCC 121 at 100 ug/ml after 24 hr by filter paper disk method; assay type: functional; details: for zone of inhibition at 100 µg/mL: MTCC 121, 24 h, read-out: DIZ
Staphylococcus aureus [7] = assay: Antibacterial activity against Staphylococcus aureus SA 22 at 100 ug/ml after 24 hr by filter paper disk method; assay type: functional; details: for zone of inhibition at 100 µg/mL: SA 22, 24 h, read-out: DIZ
Aspergillus fumigatus [8] = assay: Antifungal activity against Aspergillus fumigatus at 100 ug/ml after 72 hr; assay type: functional; details: for zone of inhibition at 100 µg/mL: read-out: DIZ
Aspergillus niger [9] = assay: Antifungal activity against Aspergillus niger at 100 ug/ml after 72 hr; assay type: functional; details: for zone of inhibition at 100 µg/mL: read-out: DIZ
Candida albicans [10] = assay: Antifungal activity against Candida albicans at 100 ug/ml after 18 to 48 hr; assay type: functional; details: for zone of inhibition at 100 µg/mL: read-out: DIZ
Salmonella typhimurium [11] = assay: Antibacterial activity against Salmonella enterica subsp. enterica serovar Typhimurium MTCC 98 at 30 ug/disc after 24 hr by filter paper disk method; assay type: functional; details: MTCC 98, 24 h, read-out: DIZ
Escherichia coli [12] = assay: Antibacterial activity against Escherichia coli K-12 at 30 ug/disc after 24 hr by filter paper disk method; assay type: functional; details: K-12, 24 h, read-out: DIZ
Bacillus subtilis [13] = assay: Antibacterial activity against Bacillus subtilis MTCC 121 at 30 ug/disk after 24 hr by filter paper disk method; assay type: functional; details: MTCC 121, 24 h, read-out: DIZ
Staphylococcus aureus [14] = assay: Antibacterial activity against Staphylococcus aureus SA 22 at 30 ug/disc after 24 hr by filter paper disk method; assay type: functional; details: SA 22, 24 h, read-out: DIZ

NYSTATIN
inhibition zone (IZ) (Aspergillus fumigatus [1]): 18 mm | inhibition zone (IZ) (Aspergillus niger [2]): 18 mm | inhibition zone (IZ) (Candida albicans [3]): 20 mm | diameter of the inhibition zone (DIZ) (Escherichia coli [4]): inactive | diameter of the inhibition zone (DIZ) (Salmonella typhimurium [5]): inactive | diameter of the inhibition zone (DIZ) (Bacillus subtilis [6]): inactive | diameter of the inhibition zone (DIZ) (Staphylococcus aureus [7]): inactive

Cc1nn(-c2ccccc2)c(Cl)c1C=C1C(=O)NC(=O)NC1=O
diameter of the inhibition zone (DIZ) (Aspergillus fumigatus [8]): inactive | diameter of the inhibition zone (DIZ) (Aspergillus niger [9]): inactive | diameter of the inhibition zone (DIZ) (Candida albicans [10]): inactive | zone of inhibition at 100 µg/mL (Escherichia coli [4]): 15 mm | zone of inhibition at 100 µg/mL (Salmonella typhimurium [5]): 12 mm | zone of inhibition at 100 µg/mL (Bacillus subtilis [6]): 19 mm | zone of inhibition at 100 µg/mL (Staphylococcus aureus [7]): 17 mm

Cc1nn(-c2ccccc2)c(Cl)c1C=C1C(=O)c2ccccc2C1=O
zone of inhibition at 100 µg/mL (Aspergillus fumigatus [8]): 10 mm | zone of inhibition at 100 µg/mL (Aspergillus niger [9]): 8 mm | zone of inhibition at 100 µg/mL (Candida albicans [10]): 12 mm | zone of inhibition at 100 µg/mL (Escherichia coli [4]): 17 mm | zone of inhibition at 100 µg/mL (Salmonella typhimurium [5]): 15 mm | zone of inhibition at 100 µg/mL (Bacillus subtilis [6]): 8 mm | zone of inhibition at 100 µg/mL (Staphylococcus aureus [7]): 12 mm

O=C(N[C@H](CO)[C@H](O)c1ccc([N+](=O)[O-])cc1)C(Cl)Cl [CHLORAMPHENICOL]
diameter of the inhibition zone (DIZ) (Aspergillus fumigatus [8]): inactive | diameter of the inhibition zone (DIZ) (Aspergillus niger [9]): inactive | diameter of the inhibition zone (DIZ) (Candida albicans [10]): inactive | zone of inhibition at 30 µg/disc (Salmonella typhimurium [11]): 20 mm | zone of inhibition at 30 µg/disc (Escherichia coli [12]): 25 mm | zone of inhibition at 30 µg/disc (Bacillus subtilis [13]): 24 mm | zone of inhibition at 30 µg/disc (Staphylococcus aureus [14]): 26 mm

Cc1nn(-c2ccccc2)c(Cl)c1C=C1C(=O)N(C)C(=S)N(C)C1=O
diameter of the inhibition zone (DIZ) (Aspergillus fumigatus [8]): inactive | diameter of the inhibition zone (DIZ) (Aspergillus niger [9]): inactive | zone of inhibition at 100 µg/mL (Candida albicans [10]): 16 mm | zone of inhibition at 100 µg/mL (Escherichia coli [4]): 15 mm | zone of inhibition at 100 µg/mL (Salmonella typhimurium [5]): 17 mm | zone of inhibition at 100 µg/mL (Bacillus subtilis [6]): 8 mm | zone of inhibition at 100 µg/mL (Staphylococcus aureus [7]): 12 mm

Cc1nn(-c2ccccc2)c(Cl)c1C=C1C(=O)N(C)C(=O)N(C)C1=O
zone of inhibition at 100 µg/mL (Aspergillus fumigatus [8]): 11 mm | zone of inhibition at 100 µg/mL (Aspergillus niger [9]): 8 mm | zone of inhibition at 100 µg/mL (Candida albicans [10]): 11 mm | zone of inhibition at 100 µg/mL (Escherichia coli [4]): 15 mm | zone of inhibition at 100 µg/mL (Salmonella typhimurium [5]): 14 mm | zone of inhibition at 100 µg/mL (Bacillus subtilis [6]): 16 mm | zone of inhibition at 100 µg/mL (Staphylococcus aureus [7]): 20 mm

CC1=NN(c2ccccc2)C(=O)/C1=C/c1c(C)nn(-c2ccccc2)c1Cl
zone of inhibition at 100 µg/mL (Aspergillus fumigatus [8]): 11 mm | zone of inhibition at 100 µg/mL (Aspergillus niger [9]): 10 mm | diameter of the inhibition zone (DIZ) (Candida albicans [10]): inactive | zone of inhibition at 100 µg/mL (Escherichia coli [4]): 8 mm | zone of inhibition at 100 µg/mL (Salmonella typhimurium [5]): 12 mm | zone of inhibition at 100 µg/mL (Bacillus subtilis [6]): 12 mm | diameter of the inhibition zone (DIZ) (Staphylococcus aureus [7]): inactive

Cc1nn(-c2ccccc2)c(Cl)c1C=C1C(=O)OC(C)(C)OC1=O
diameter of the inhibition zone (DIZ) (Aspergillus fumigatus [8]): inactive | diameter of the inhibition zone (DIZ) (Aspergillus niger [9]): inactive | zone of inhibition at 100 µg/mL (Candida albicans [10]): 14 mm | diameter of the inhibition zone (DIZ) (Escherichia coli [4]): inactive | diameter of the inhibition zone (DIZ) (Salmonella typhimurium [5]): inactive | zone of inhibition at 100 µg/mL (Bacillus subtilis [6]): 15 mm | zone of inhibition at 100 µg/mL (Staphylococcus aureus [7]): 19 mm

Cc1nn(-c2ccccc2)c(Cl)c1/C=C1\Sc2ccccc2NC1=O
diameter of the inhibition zone (DIZ) (Aspergillus fumigatus [8]): inactive | diameter of the inhibition zone (DIZ) (Aspergillus niger [9]): inactive | zone of inhibition at 100 µg/mL (Candida albicans [10]): 15 mm | zone of inhibition at 100 µg/mL (Escherichia coli [4]): 8 mm | diameter of the inhibition zone (DIZ) (Salmonella typhimurium [5]): inactive | diameter of the inhibition zone (DIZ) (Bacillus subtilis [6]): inactive | zone of inhibition at 100 µg/mL (Staphylococcus aureus [7]): 14 mm
